Test results taken from ChEMBL document CHEMBL4742387, “Condensed tricyclic compounds as protein kinase inhibitors” (2018).

Key:
SW-620 [1] = assay: Antiproliferative activity against human SW-620 cells assessed as reduction in cell proliferation by CellTiter-Glo luminescent cell viability assay; type: functional
[2] = target: T1, Cyclin-dependent kinase 8 (Homo sapiens, UniProt P49336); assay: Inhibition of CDK8 in human SW-620 cells assessed as reduction in IFNgamma-induced STAT1 S727 phosphorylation pre-incubated for 1 hr before IFNgamma stimulation for 3 hrs by Western blot analysis; type: cell-based; details: time 4.0 hrs
[3] = target: T2, Serine/threonine-protein kinase haspin (Homo sapiens) (UniProt Q8TF76); assay: Inhibition of haspin in synchronized human SW620 cells assessed as reduction in IFNgamma-induced H3T3 phosphorylation pre-incubated for 1 hr before IFNgamma stimulation for 3 hrs by Western blot analysis; type: cell-based; details: SW-620, time 4.0 hrs
T2 sequence (whole entry): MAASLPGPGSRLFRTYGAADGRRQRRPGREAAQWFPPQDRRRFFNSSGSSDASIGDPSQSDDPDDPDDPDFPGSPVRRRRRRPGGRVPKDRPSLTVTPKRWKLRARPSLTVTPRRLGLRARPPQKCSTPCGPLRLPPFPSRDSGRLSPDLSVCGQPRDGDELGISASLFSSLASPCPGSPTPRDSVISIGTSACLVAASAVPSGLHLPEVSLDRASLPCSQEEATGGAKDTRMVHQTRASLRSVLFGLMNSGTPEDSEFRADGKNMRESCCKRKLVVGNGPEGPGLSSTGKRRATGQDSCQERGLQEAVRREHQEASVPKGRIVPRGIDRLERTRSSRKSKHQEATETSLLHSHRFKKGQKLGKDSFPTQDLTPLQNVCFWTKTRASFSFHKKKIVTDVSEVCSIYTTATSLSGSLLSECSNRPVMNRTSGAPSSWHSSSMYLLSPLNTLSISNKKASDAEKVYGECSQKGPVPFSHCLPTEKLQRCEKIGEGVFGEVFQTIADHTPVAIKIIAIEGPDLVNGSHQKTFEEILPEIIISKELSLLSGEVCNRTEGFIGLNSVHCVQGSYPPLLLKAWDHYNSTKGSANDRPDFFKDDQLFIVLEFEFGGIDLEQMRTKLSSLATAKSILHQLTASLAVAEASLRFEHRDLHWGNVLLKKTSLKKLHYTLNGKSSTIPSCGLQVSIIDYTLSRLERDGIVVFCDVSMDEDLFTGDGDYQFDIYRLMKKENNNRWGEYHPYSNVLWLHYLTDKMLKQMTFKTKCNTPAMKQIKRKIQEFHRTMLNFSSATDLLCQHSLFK

SW-620 [4] = assay: Inhibition of colony formation of human SW-620 cells incubated for 11 days (Every 3 days medium is changed by fresh medium and compounds were added freshly) by crystal violet staining based assay; type: functional, cell-based
MV4-11 = assay: Antiproliferative activity against human MV4-11 cells assessed as reduction in cell proliferation by CellTiter-Glo luminescent cell viability assay; type: functional
MDA-MB-231 = assay: Antiproliferative activity against human MDA-MB-231 cells assessed as reduction in cell proliferation by CellTiter-Glo luminescent cell viability assay; type: functional
MOLM-13 = assay: Antiproliferative activity against human MOLM-13 cells assessed as reduction in cell proliferation by CellTiter-Glo luminescent cell viability assay; type: functional
[5] = target: T1, Cyclin-dependent kinase 8; assay: Inhibition of CDK8 in human SW-620 cells assessed as reduction in STAT1 S727 phosphorylation pre-incubated for 1 hr before IFNgamma stimulation for 3 hrs by Western blot analysis; type: cell-based; details: time 4.0 hrs
[6] = target: T2, Serine/threonine-protein kinase haspin (Homo sapiens); assay: Inhibition of haspin in human SW620 cells assessed as reduction in IFNgamma-induced H3T3 phosphorylation pre-incubated for 1 hr before IFNgamma stimulation for 3 hrs by Western blot analysis; type: cell-based; details: SW-620, time 4.0 hrs
CDK8/Cyclin C = CDK8/Cyclin C (Homo sapiens, UniProt P49336); assay: Inhibition of kinase tracer 236 binding to full-length His-tagged recombinant human CDK8/cyclin C incubated for 60 mins by FRET based LanthaScreen Eu-Kinase binding assay; type: protein-complex assay
[7] = target: T3, Serine/threonine-protein kinase haspin (Homo sapiens, UniProt Q8TF76); assay: Inhibition of GST-tagged recombinant human haspin kinase domain incubated for 60 mins by ADP-Glo luminescent kinase assay
T3 sequence (Q8TF76 whole entry): T2 sequence (whole entry)

[8] = target: Cyclin-C/Cyclin-dependent kinase 19 (Homo sapiens, UniProt Q9BWU1); assay: Inhibition of kinase tracer 236 binding to full-length His-tagged recombinant human CDK19/cyclin C incubated for 60 mins by FRET based LanthaScreen Eu-Kinase binding assay; type: protein-complex assay
HCT-116 = assay: Antiproliferative activity against human HCT-116 cells assessed as reduction in cell proliferation by CellTiter-Glo luminescent cell viability assay; type: functional

T1 sequence (P49336 whole entry): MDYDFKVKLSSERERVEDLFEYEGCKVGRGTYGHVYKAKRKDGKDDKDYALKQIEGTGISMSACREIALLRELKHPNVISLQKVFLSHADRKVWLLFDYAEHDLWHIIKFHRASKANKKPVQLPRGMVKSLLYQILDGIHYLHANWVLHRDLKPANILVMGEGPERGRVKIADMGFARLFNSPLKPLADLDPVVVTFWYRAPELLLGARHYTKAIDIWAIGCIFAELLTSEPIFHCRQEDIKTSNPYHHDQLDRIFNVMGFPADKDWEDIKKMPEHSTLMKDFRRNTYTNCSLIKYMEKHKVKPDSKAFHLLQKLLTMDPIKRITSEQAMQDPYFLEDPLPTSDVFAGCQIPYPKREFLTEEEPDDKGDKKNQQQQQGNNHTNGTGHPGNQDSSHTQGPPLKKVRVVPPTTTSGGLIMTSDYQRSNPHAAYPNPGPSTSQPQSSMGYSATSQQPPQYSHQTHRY
Chain of CDK8/Cyclin C (P49336 whole entry, the tested form may be a part): as the sequence (P49336 whole entry) above
Chain of CDK8/Cyclin C (P24863 whole entry, further chain, the tested form may be a part): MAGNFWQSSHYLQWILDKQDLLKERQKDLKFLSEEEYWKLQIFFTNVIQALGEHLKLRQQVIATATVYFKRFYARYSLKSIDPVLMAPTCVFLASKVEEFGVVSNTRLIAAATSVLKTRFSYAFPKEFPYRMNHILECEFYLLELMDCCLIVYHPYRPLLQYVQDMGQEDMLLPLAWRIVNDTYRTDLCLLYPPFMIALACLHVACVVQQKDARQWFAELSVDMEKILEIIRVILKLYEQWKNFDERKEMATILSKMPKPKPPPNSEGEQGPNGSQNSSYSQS
Chain of Cyclin-C/Cyclin-dependent kinase 19 (Q9BWU1 whole entry): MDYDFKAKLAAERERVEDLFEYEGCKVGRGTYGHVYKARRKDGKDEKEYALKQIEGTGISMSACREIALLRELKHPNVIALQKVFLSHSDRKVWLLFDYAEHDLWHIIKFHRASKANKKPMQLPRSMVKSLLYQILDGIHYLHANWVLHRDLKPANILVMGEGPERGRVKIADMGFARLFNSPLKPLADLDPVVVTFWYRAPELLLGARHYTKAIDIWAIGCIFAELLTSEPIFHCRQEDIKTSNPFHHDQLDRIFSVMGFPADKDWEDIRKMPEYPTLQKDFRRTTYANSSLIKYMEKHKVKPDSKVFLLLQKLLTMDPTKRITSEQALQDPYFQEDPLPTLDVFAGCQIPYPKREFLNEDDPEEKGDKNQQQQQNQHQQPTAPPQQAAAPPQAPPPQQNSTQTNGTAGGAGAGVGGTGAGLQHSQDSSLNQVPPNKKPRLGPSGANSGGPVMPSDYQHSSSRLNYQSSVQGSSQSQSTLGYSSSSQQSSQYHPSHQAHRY
Chain of Cyclin-C/Cyclin-dependent kinase 19 (P24863 whole entry, further chain): as the sequence (P24863 whole entry, further chain, the tested form may be a part) above

Structure (SMILES) | GI50 (SW-620 [1]; Homo sapiens, SW-620) [nM] | GI50 (MV4-11; Homo sapiens, MV4-11) [nM] | GI50 (MDA-MB-231; Homo sapiens, MDA-MB-231) [nM] | GI50 (MOLM-13; Homo sapiens, MOLM-13) [nM] | INH [5] [nM] | also measured
COc1ccc(S(=O)(=O)Nc2cccnc2Nc2ccc(O)cc2)cc1 [ABT-751] | 500 |  |  |  |  | 
COc1ccccc1-c1c2c(n(CCF)c1C(N)=O)-c1ccncc1OC2(C)C |  |  |  |  |  | INH [2]: < 500 nM; INH [3]: 0.5 µM; EC50 (SW-620 [4]): 5430 nM
NC(=O)c1cc2c([nH]1)-c1ccncc1OC21CCN(CCc2ccccc2)CC1 | 1000 | < 1000 | 1000 | < 1000 |  | 
Cn1c(C(N)=O)cc2c1-c1ccncc1OC21CCCCC1 | 1000 | < 1000 | 1000 | < 1000 | < 500 | 
NC(=O)c1cc2c([nH]1)-c1ccncc1OC21CCN(CC(F)(F)F)CC1 | 10000 | 1000 | 10000 | 1000 |  | 
CCn1c(C(N)=O)cc2c1-c1ccncc1OC21CCCCC1 [listing 1 of 2 here] |  |  |  |  | < 500 | INH [6]: < 500 nM
Cn1c(C(N)=O)cc2c1-c1ccncc1OC2(C)C | 10000 | < 1000 | 1000 | 1000 |  | 
NC(=O)c1cc2c([nH]1)-c1ccncc1OC2C1CCOCC1 (stereo in doubt; form 2) |  |  |  |  |  | IC50 (CDK8/Cyclin C): 4.46 nM; IC50 [7]: 406 nM; IC50 [8]: 14.2 nM; GI50 (MV4-11): 1000 nM; GI50 (MDA-MB-231): 10000 nM; GI50 (SW-620 [1]): 10000 nM
CC(=O)O[C@H]1C(=O)[C@@]2(C)[C@H]([C@H](OC(=O)c3ccccc3)[C@]3(O)C[C@H](OC(=O)[C@H](O)[C@@H](NC(=O)c4ccccc4)c4ccccc4)C(C)=C1C3(C)C)[C@]1(OC(C)=O)CO[C@@H]1C[C@@H]2O [PACLITAXEL] | 5 |  |  |  |  | GI50 (HCT-116): 5 nM
CCn1c(C(N)=O)cc2c1-c1ccncc1OC2C1CCCCC1 (stereo in doubt; form 2) [listing 1 of 2 here] |  |  |  |  | < 500 | INH [6]: < 500 nM
NC(=O)c1cc2c(n1CCF)-c1ccncc1OC21CCC1 | 1000 | < 1000 | 1000 | < 1000 | < 500 | 
NC(=O)c1cc2c(n1CCF)-c1ccncc1OC21CCCCC1 | 1000 | < 1000 | 1000 | < 1000 | < 500 | INH [6]: < 500 nM
CC1(C)Oc2cncc(Cl)c2-c2[nH]c(C(N)=O)cc21 |  | < 1000 |  |  |  | 
CCn1c(C(N)=O)cc2c1-c1ccncc1OC2C1CCCCC1 (stereo in doubt; form 2) [listing 2 of 2 here] |  |  |  |  |  | IC50 (CDK8/Cyclin C): 1.36 nM; IC50 [7]: 522 nM; GI50 (MOLM-13): 1000 nM
CCn1c(C(N)=O)cc2c1-c1ccncc1OC2C1CCCCC1 (stereo in doubt; form 1) | 10000 | < 1000 | 10000 | < 1000 |  | IC50 (CDK8/Cyclin C): 0.407 nM; IC50 [7]: 95.2 nM; IC50 [8]: 1.41 nM
CCn1c(C(N)=O)c(Cl)c2c1-c1ccncc1OC21CCCCC1 |  |  |  |  |  | IC50 (CDK8/Cyclin C): < 1.41 nM
CCn1c(C(N)=O)c(-c2ccccc2OC)c2c1-c1ccncc1OC2(C)C | 10000 | < 1000 | 10000 | < 1000 | < 500 | INH [2]: < 500 nM; INH [3]: < 0.5 µM; INH [6]: < 500 nM
NC(=O)c1cc2c([nH]1)-c1ccncc1OC2C1CCOCC1 (stereo in doubt; form 1) |  |  |  |  |  | INH [2]: 500 nM; INH [3]: 0.5 µM
COCCn1c(C(N)=O)cc2c1-c1ccncc1OC21CCOCC1 | 10000 | 1000 | 10000 | 10000 |  | 
CCn1c(C(N)=O)cc2c1-c1ccncc1OC21CCCCC1 [listing 2 of 2 here] |  |  |  |  |  | IC50 (CDK8/Cyclin C): 301 nM
